pKi: −log10 of the molar value. Structures can show the parent of a compound that is named as a salt.
Tests used:
[1] = tested on: human multiple myeloma cells (MM.1R) transfected with siRNA; experiment: Anti-proliferation assay after siRNA transfection; type: cell-based
Procedure: siRNA to adenosine receptor A1, A2A, A3, PDE 2A, PDE 3B, PDE 4B, PDE 4D and PDE 7A, and control siRNA siCON were purchased from Dharmacon. A2B siRNA was purchased from Invitrogen. Electroporations were performed using an Amaxa Nucleoporator (program S-20) and solution V. siRNAs were used at 50 nM. […] RNA was isolated using Qiagen RNAeasy kits, and targets quantified by RT-PCR using gene specific primers purchased from Applied Biosystems.
Cells were added to 384-well plates 24 hours prior to compound addition such that each well contained 2000 cells in 35 μL of media. Master plates were diluted 100× (1 μL into 100 μL) into 384-well dilution plates containing only cell culture media. 4.5 μL from each dilution plate was added to each assay plate for a final dilution of 1000×. To obtain combination data, two master plates were diluted into the assay plates. Following compound addition, assay plates were kept at 37° C. and 5% CO2 for 72 hours. Thirty microliters of ATPLite (Perkin Elmer) at room temperature was then added to each well. Final amount of ATP was quantified within 30 minutes using ATPLite luminescent read-out on an Envision 2103 Multilabel Reader (Perkin Elmer). Measurements were taken at the top of the well using a luminescence aperture and a read time of 0.1 seconds per well.
We also examined the antiproliferative activity of adenosine receptor agonists when the MM cell line MM.1R was transfected with siRNA targeting the A1, A2A, A2B or A3 receptor. Specific gene silencing (A1, A2A, A2B, or A3) was greater than 50% as determined by real time PCR analysis 48 hours post-transfection. At 48 hours post-transfection, cells were exposed to adenosine receptor agonist, incubated an additional 72 hours, and compounds assayed for antiproliferative activity. Representative data is in Table 34. Cells transfected with adenosine receptor siRNA or a control siRNA (scrambled sequences designed so that cellular transcriptsare not targeted) were treated with the adenosine receptor agonist ADAC. […] Similar results were obtained with a second siRNA with specificity for different region of the A2A receptor mRNA, confirming that the reduction in adenosine receptor agonist activity is the result of specific siRNA targeting of the A2A receptor (data not shown).
In our experiments, PDE gene silencing was always greater than 50% as confirmed by real time PCR analysis 48 hours post-transfection. At 48 hours post-transfection, cells were exposed to adenosine receptor agonist and PDE inhibitor, incubated an additional 72 hours, and compounds assayed for antiproliferative activity. Representative data is in Tables 39-45. For each analysis, the activity of cells transfected with an siRNA targeting a specific PDE was compared to cells transfected with a control non-targeting siRNA (siCON).

A2A receptor = A2A receptor (Homo sapiens, UniProt P29274); conditions: cited from earlier work
A2A receptor, sequence (P29274 whole entry): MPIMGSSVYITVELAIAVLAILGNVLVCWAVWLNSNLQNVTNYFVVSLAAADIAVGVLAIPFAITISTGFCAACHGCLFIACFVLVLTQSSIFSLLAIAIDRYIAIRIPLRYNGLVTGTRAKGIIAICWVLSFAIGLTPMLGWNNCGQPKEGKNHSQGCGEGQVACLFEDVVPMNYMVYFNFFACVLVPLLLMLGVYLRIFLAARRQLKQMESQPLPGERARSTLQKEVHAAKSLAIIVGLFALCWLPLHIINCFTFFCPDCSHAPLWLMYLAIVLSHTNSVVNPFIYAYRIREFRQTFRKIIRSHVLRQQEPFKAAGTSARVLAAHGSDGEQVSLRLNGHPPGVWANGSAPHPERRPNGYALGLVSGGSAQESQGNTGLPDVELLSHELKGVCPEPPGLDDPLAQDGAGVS

[2] = tested on: human multiple myeloma cells (MM.1R); experiment: Anti-proliferation assay (ATPLite, 72 h); type: cell-based; parameters: key: S = lnfX·lnfY·ΣIdata(Idata−ILoewe), volume over Loewe additivity
Outline: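 Cells treated 72 h with compounds in 2- or 3-fold serial dilutions (12 concentrations for single agents; 6×6 matrix for combinations); INA-6 medium supplemented with 10 ng/ml IL-6. Viability by ATPLite luminescence; % inhibition vs untreated wells, curves fitted, combinations assessed by Loewe additivity and Synergy Score.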

ANBL6 MM cell line = experiment: Anti-proliferation assay (ATPLite, 72 h); type: cell-based, human; conditions: CGS-21680 × PDE inhibitor
Procedure: (§1) ANBL6 and INA-6 culture media was also supplemented with 10 ng/ml IL-6. […] MM.1S, MM.1R, OCI-ly10, Karpas 422, and SU-DHL6 cells were provided by the Dana Farber Cancer Institute. H929, RPMI-8226, GA-10, and Farage cells were from ATCC (Cat #'s CCL-155, CRL-9068, CRL-2392 and CRL-2630 respectively). MOLP-8, EJM, KSM-12-PE, and OPM2 were from DSMZ. The ANBL6 and INA-6 cell lines were provided by the M. D. Anderson Cancer Research Center. Compounds were prepared in DMSO at 1000× the highest desired concentration. Master plates were generated consisting of serially diluted compounds in 2- or 3-fold dilutions in 384-well format. For single agent dose response curves, the master plates consisted of 9 individual compounds at 12 concentrations in 2- or 3-fold dilutions. For combination matrices, master plates consisted of individual compounds at 6 or 9 concentrations at 2- or 3-fold dilutions. […] To obtain combination data, two master plates were diluted into the assay plates. […] Thirty microliters of ATPLite (Perkin Elmer) at room temperature was then added to each well. […] Measurements were taken at the top of the well using a luminescence aperture and a read time of 0.1 seconds per well. The percent inhibition (% I) for each well was calculated using the following formula: % I=[(avg. untreated wells-treated well)/(avg. untreated wells)]×100. […] Negative inhibition values result from local variations in treated wells as compared to untreated wells. […] The uncertainty of each fitted parameter was estimated from the range over which the change in reduced chi-squared was less than one, or less than minimum reduced chi-squared if that minimum exceeded one, to allow for underestimated σI errors. Single agent curve data were used to define a dilution series for each compound to be used for combination screening in a 6×6 matrix format. […] The Loewe additivity model was used to quantify combination effects. […] A “Synergy Score” was also used, where the Synergy Score S=log fX log fY ΣIdata(Idata-ILoewe), summed over all non-single-agent concentration pairs, and where log fX,Y is the natural logarithm of the dilution factors used for each single agent. This effectively calculates a volume between the measured and Loewe additive response surfaces, weighted towards high inhibition and corrected for varying dilution factors. An uncertainty σS was calculated for each synergy score, based on the measured errors for the Idata values and standard error propagation.

EJM MM cell line = experiment: Anti-proliferation assay (ATPLite, 72 h); type: cell-based, human; conditions: CGS-21680 × PDE inhibitor
Procedure: as §1

INA-6 MM cell line = experiment: Anti-proliferation assay (ATPLite, 72 h); type: cell-based, human; conditions: CGS-21680 × PDE inhibitor
Procedure: as §1

KSM-12-PE MM cell line = experiment: Anti-proliferation assay (ATPLite, 72 h); type: cell-based, human; conditions: CGS-21680 × PDE inhibitor
Procedure: as §1

MOLP-8 MM cell line = experiment: Anti-proliferation assay (ATPLite, 72 h); type: cell-based, human; conditions: CGS-21680 × PDE inhibitor
Procedure: as §1

OPM2 MM cell line = experiment: Anti-proliferation assay (ATPLite, 72 h); type: cell-based, human; conditions: CGS-21680 × PDE inhibitor
Procedure: as §1

[3] = in combination with adenosine receptor agonist CGS-21680, MM.1R
[4] = in combination with adenosine receptor agonist regadenoson, MM.1R

With NCCNC(=O)Cc1ccc(NC(=O)Cc2ccc(Nc3ncnc4c3ncn4[C@@H]3O[C@H](CO)[C@@H](O)[C@H]3O)cc2)cc1 [ADAC, N-(4-(2-((4-(2-((2-aminoethyl)amino)-2-oxoethyl)phenyl)amino)-2-oxoethyl)phenyl)-Adenosine] as the compound, how does the Antiproliferative activity ([1]; A1 siRNA, ADAC 0.013 μM) read?
Its Antiproliferative activity is 18%.

And the Antiproliferative activity ([1]; A1 siRNA, ADAC 0.063 μM)?
The Antiproliferative activity was 16%.

And the Antiproliferative activity ([1]; A1 siRNA, ADAC 0.51 μM)?
Its Antiproliferative activity is 41%.

What about the Antiproliferative activity ([1]; A1 siRNA, ADAC 1 μM) of the same compound?
Its Antiproliferative activity is 52%.

What about the Antiproliferative activity ([1]; A2A siRNA, ADAC 0.013 μM) of the same compound?
The Antiproliferative activity was 12%.

What about the Antiproliferative activity ([1]; A2A siRNA, ADAC 0.063 μM) of the same compound?
Its Antiproliferative activity is 6.7%.

And the Antiproliferative activity ([1]; A2A siRNA, ADAC 0.51 μM)?
The Antiproliferative activity was 19%.

What about the Antiproliferative activity ([1]; A2A siRNA, ADAC 1 μM) of the same compound?
Its Antiproliferative activity is 24%.

What about the Antiproliferative activity ([1]; A2B siRNA, ADAC 0.013 μM) of the same compound?
The Antiproliferative activity was 17%.

What about the Antiproliferative activity ([1]; A2B siRNA, ADAC 0.063 μM) of the same compound?
Its Antiproliferative activity is 12%.

And the Antiproliferative activity ([1]; A2B siRNA, ADAC 0.51 μM)?
The Antiproliferative activity was 40%.

And the Antiproliferative activity ([1]; A2B siRNA, ADAC 1 μM)?
The Antiproliferative activity was 53%.

What about the Antiproliferative activity ([1]; A3 siRNA, ADAC 0.013 μM) of the same compound?
The Antiproliferative activity was 22%.

And the Antiproliferative activity ([1]; A3 siRNA, ADAC 0.063 μM)?
Its Antiproliferative activity is 18%.

What about the Antiproliferative activity ([1]; A3 siRNA, ADAC 0.51 μM) of the same compound?
The Antiproliferative activity was 46%.

And the Antiproliferative activity ([1]; A3 siRNA, ADAC 1 μM)?
The Antiproliferative activity was 54%.

What about the “antiproliferative activity after siRNA silencing” value ([1]; MM.1R, siRNA that targeted the A2A receptor) of the same compound?
Its value is “reduced”.

And the “antiproliferative activity after siRNA silencing” value ([1]; MM.1R, siRNA to the A1, A2B, or A3 receptor)?
The value was “did not affect ADAC activity”.

And the Antiproliferative activity ([1]; control siRNA, ADAC 0.013 μM)?
Its Antiproliferative activity is 19%.

And the Antiproliferative activity ([1]; control siRNA, ADAC 0.063 μM)?
The Antiproliferative activity was 15%.

What about the Antiproliferative activity ([1]; control siRNA, ADAC 0.51 μM) of the same compound?
The Antiproliferative activity was 43%.

And the Antiproliferative activity ([1]; control siRNA, ADAC 1 μM)?
Its Antiproliferative activity is 54%.

Which Antiproliferative activity ([1]; A2A siRNA, HE-NECA 0.5 μM) does the source give for CCCCC#Cc1nc(N)c2ncn([C@@H]3O[C@H](C(=O)NCC)[C@@H](O)[C@H]3O)c2n1 [HE-NECA, hexynyladenosine-5′-N-ethylcarboxamide] here?
The Antiproliferative activity was 30%.

And the Antiproliferative activity ([1]; A2A siRNA, HE-NECA 1 μM)?
Its Antiproliferative activity is 29%.

What about the Antiproliferative activity ([1]; A2A siRNA, HE-NECA 2 μM) of the same compound?
Its Antiproliferative activity is 38%.

What about the Antiproliferative activity ([1]; A2A siRNA, HE-NECA 4.1 μM) of the same compound?
The Antiproliferative activity was 40%.

And the “effect of A2A receptor silencing on agonist activity” value ([1]; MM.1R, A2A siRNA)?
Its value is “strong effect”.

What about the Antiproliferative activity ([1]; MM.1R, siRNA targeting PDE 2A, HE-NECA 1.25 nM, R-(−)-Rolipram 0 μM) of the same compound?
The Antiproliferative activity was 36.

And the Antiproliferative activity ([1]; MM.1R, siRNA targeting PDE 2A, HE-NECA 5 nM, R-(−)-Rolipram 0 μM)?
Its Antiproliferative activity is 51.

What about the Antiproliferative activity ([1]; MM.1R, siRNA targeting PDE 2A, HE-NECA 10 nM, R-(−)-Rolipram 0 μM) of the same compound?
Its Antiproliferative activity is 55.

And the Antiproliferative activity ([1]; MM.1R, siRNA targeting PDE 2A, HE-NECA 20 nM, R-(−)-Rolipram 0 μM)?
Its Antiproliferative activity is 68.

And the Antiproliferative activity ([1]; MM.1R, siRNA targeting PDE 2A, HE-NECA […], R-(−)-Rolipram 0 μM)?
The Antiproliferative activity was 48.

What about the Antiproliferative activity ([1]; control siRNA, HE-NECA 0.5 μM) of the same compound?
Its Antiproliferative activity is 68%.

What about the Antiproliferative activity ([1]; control siRNA, HE-NECA 1 μM) of the same compound?
Its Antiproliferative activity is 68%.

What about the Antiproliferative activity ([1]; control siRNA, HE-NECA 2 μM) of the same compound?
Its Antiproliferative activity is 73%.

What about the Antiproliferative activity ([1]; control siRNA, HE-NECA 4.1 μM) of the same compound?
The Antiproliferative activity was 74%.

And the pKi (A2A receptor)?
The pKi was roughly 7.57.

For COc1cc2c(cc1OC)-c1cc(=Nc3c(C)cc(C)cc3C)n(C)c(=O)n1CC2 [Trequinsin hydrochloride, 2,3,6,7-tetrahydro-9,10-dimethoxy-3-methyl-2-((2,4,6-trimethylphenyl)imino)-4H-pyrimido(6,1-a)isoquinolin-4-one], which synergy score ([2]; in combination with adenosine receptor agonist ADAC, MM.1R) is on record?
Its synergy score is 6.47.

And the synergy score [2, 3]?
Its synergy score is 6.57.

And the synergy score ([2]; in combination with adenosine receptor agonist HE-NECA, MM.1R)?
The synergy score was 4.329.

What about the synergy score [2, 4] of the same compound?
Its synergy score is 2.8.

What about the synergy score (ANBL6 MM cell line) of the same compound?
The synergy score was 4.55.

What about the synergy score (EJM MM cell line) of the same compound?
The synergy score was 4.81.

What about the synergy score (INA-6 MM cell line) of the same compound?
Its synergy score is 3.93.

And the synergy score (KSM-12-PE MM cell line)?
Its synergy score is 2.44.

And the synergy score (MOLP-8 MM cell line)?
Its synergy score is 4.7.

And the synergy score (OPM2 MM cell line)?
Its synergy score is 4.74.

For COc1cc(-c2ccc(=O)[nH]n2)ccc1OC(F)F [Zardaverine, 6-(4-(difluoromethoxy)-3-methoxyphenyl)-3(2H)-Pyridazinone], which synergy score [2, 3] is on record?
Its synergy score is 2.15.

And the synergy score [2, 4]?
The synergy score was 1.49.

What about the synergy score (ANBL6 MM cell line) of the same compound?
The synergy score was 2.11.

What about the synergy score (EJM MM cell line) of the same compound?
Its synergy score is 0.98.

And the synergy score (INA-6 MM cell line)?
The synergy score was 2.69.

And the synergy score (KSM-12-PE MM cell line)?
Its synergy score is 0.49.

What about the synergy score (MOLP-8 MM cell line) of the same compound?
The synergy score was 3.06.

What about the synergy score (OPM2 MM cell line) of the same compound?
The synergy score was 1.15.

From patent US20090047243A1, “COMBINATIONS FOR THE TREATMENT OF B-CELL PROLIFERATIVE DISORDERS” (priority 2007, published 2009)
